*1 amine or outer side, *2 acyl side, *3 side chain or, on linkers, in order; H or OH if unused. Where a SMILES comes first, the peptide text is derived from it. Side-chain parts run from the residue outwards. The star is where a group is joined. γGlu = O=C(O)[C@H](CCC(=O)[*:2])N[*:1]; Pentanoyl = CCCCC(=O)*
biological target: T1, glucagon receptor (Homo sapiens, UniProt P47871); test: Assay (I) Glucagon activity (cAMP biosensor, FLIPR); type: cell-based; conditions: HEK-293 cells with cloned glucagon receptor and cAMP biosensor; end point after 6 minutes
T1 construct: expressed in transfected cells
Description: The glucagon receptor was cloned into HEK-293 cells having a membrane bound cAMP biosensor (ACTOne™). The cells (14000 per well) were incubated (37° C., 5% CO2) overnight in 384-well plates. Next day the cells were loaded with a calcium responsive dye that only distributed into the cytoplasm. Probenecid, an inhibitor of the organic anion transporter, was added to prevent the dye from leaving the cell. A PDE inhibitor was added to prevent formatted cAMP from being degraded, The plates were placed into a […] and the glucagon analogues were added. End point data were collected after 6 minutes. An increase in intracellular cAMP was proportional to an increased in calcium concentrations in the cytoplasm. When calcium was bound the dry a fluorescence signal was generated. EC50-values were calculated in Prism5.

T1 sequence (P47871 26-477): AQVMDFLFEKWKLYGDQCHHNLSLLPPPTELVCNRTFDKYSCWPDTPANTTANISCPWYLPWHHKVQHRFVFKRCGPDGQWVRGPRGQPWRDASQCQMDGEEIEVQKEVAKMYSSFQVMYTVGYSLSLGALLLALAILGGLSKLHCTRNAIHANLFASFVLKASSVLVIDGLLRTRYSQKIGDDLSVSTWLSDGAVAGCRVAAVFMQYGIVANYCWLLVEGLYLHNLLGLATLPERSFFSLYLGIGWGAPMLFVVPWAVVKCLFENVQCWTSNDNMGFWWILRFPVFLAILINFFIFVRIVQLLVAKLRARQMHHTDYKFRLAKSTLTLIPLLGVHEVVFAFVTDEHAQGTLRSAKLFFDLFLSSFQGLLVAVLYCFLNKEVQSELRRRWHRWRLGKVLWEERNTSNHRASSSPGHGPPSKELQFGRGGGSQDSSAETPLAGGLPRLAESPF

Compound | EC50 [nM]
CC(=O)N[C@@H](CCC(=O)N[C@@H](CCC(=O)N[C@@H](CCC(=O)N[C@@H](CCC(=O)NCCCC[C@H](NC(=O)[C@@H](NC(=O)[C@H](Cc1ccccc1)NC(=O)[C@H](CC(=O)O)NC(=O)[C@H](C)NC(=O)[C@H](C)NC(=O)[C@H](CCCNC(=N)N)NC(=O)[C@H](CCCNC(=N)N)NC(=O)[C@H](CC(C)C)NC(=O)[C@H](CC(=O)O)NC(=O)[C@H](CC(C)C)NC(=O)[C@H](Cc1ccc(O)cc1)NC(=O)[C@H](CCCCN)NC(=O)[C@H](CO)NC(=O)[C@@H](NC(=O)[C@H](CC(=O)O)NC(=O)[C@H](CO)NC(=O)[C@@H](NC(=O)[C@H](Cc1ccccc1)NC(=O)[C@@H](NC(=O)CNC(=O)[C@H](Cc1c[nH]cn1)NC(=O)[C@H](C)NC(=O)[C@@H](N)Cc1c[nH]cn1)[C@@H](C)O)[C@@H](C)O)C(C)C)C(C)C)C(=O)N[C@@H](Cc1c[nH]c2ccccc12)C(=O)N[C@@H](CC(C)C)C(=O)N[C@@H](CC(C)C)C(=O)N[C@@H](CO)C(=O)N[C@H](C(=O)O)[C@@H](C)O)C(=O)O)C(=O)O)C(=O)O)C(=O)O [Example 62, N^ε24-[(4S)-4-[[(4S)-4-[[(4S)-4-[[(4S)-4-acetamido-4-carboxybutanoyl]amino]-4-carboxybutanoyl]amino]-4-carboxybutanoyl]amino]-4-carboxybutanoyl]-[Ala^2,His^3,Val^10,Leu^16,Ala^20,Lys^24,Leu^27,Ser^28]-Glucagon] (H-HAHGTFTSDVSKYLDLRRAADFVK([γGlu-γGlu-γGlu-γGlu-Ac])WLLST-OH) | 0.052
CC(=O)N[C@@H](CCC(=O)N[C@@H](CCC(=O)N[C@@H](CCC(=O)N[C@@H](CCC(=O)NCCCC[C@H](NC(=O)[C@H](CC(C)C)NC(=O)[C@H](CC(C)C)NC(=O)[C@H](Cc1c[nH]c2ccccc12)NC(=O)[C@H](CCC(N)=O)NC(=O)[C@@H](NC(=O)[C@H](Cc1ccccc1)NC(=O)[C@H](CC(=O)O)NC(=O)[C@H](CCC(N)=O)NC(=O)[C@H](C)NC(=O)[C@H](CCCNC(=N)N)NC(=O)[C@H](CCCNC(=N)N)NC(=O)[C@H](CO)NC(=O)[C@H](CC(=O)O)NC(=O)[C@H](CC(C)C)NC(=O)[C@H](Cc1ccc(O)cc1)NC(=O)[C@H](CCCCN)NC(=O)[C@H](CO)NC(=O)[C@H](Cc1ccc(O)cc1)NC(=O)[C@H](CC(=O)O)NC(=O)[C@H](CO)NC(=O)[C@@H](NC(=O)[C@H](Cc1ccccc1)NC(=O)[C@@H](NC(=O)CNC(=O)[C@H](CCC(N)=O)NC(=O)[C@H](CO)NC(=O)[C@@H](N)Cc1c[nH]cn1)[C@@H](C)O)[C@@H](C)O)C(C)C)C(=O)N[C@H](C(=O)O)[C@@H](C)O)C(=O)O)C(=O)O)C(=O)O)C(=O)O [Example 53, N^ε28-[(4S)-4-[[(4S)-4-[[(4S)-4-[[(4S)-4-acetamido-4-carboxybutanoyl]amino]-4-carboxybutanoyl]amino]-4-carboxybutanoyl]amino]-4-carboxybutanoyl]-[Leu^27,Lys^28]-Glucagon] | 0.007
CC(=O)N[C@@H](CCC(=O)N[C@@H](CCC(=O)N[C@@H](CCC(=O)N[C@@H](CCC(=O)NCCCC[C@H](NC(=O)[C@H](CO)NC(=O)[C@H](CC(C)C)NC(=O)[C@H](CC(C)C)NC(=O)[C@H](Cc1c[nH]c2ccccc12)NC(=O)[C@H](CCC(N)=O)NC(=O)[C@@H](NC(=O)[C@H](Cc1ccccc1)NC(=O)[C@H](CC(=O)O)NC(=O)[C@H](CCC(N)=O)NC(=O)[C@H](C)NC(=O)[C@H](CCCNC(=N)N)NC(=O)[C@H](CCCNC(=N)N)NC(=O)[C@H](CO)NC(=O)[C@H](CC(=O)O)NC(=O)[C@H](CC(C)C)NC(=O)[C@H](Cc1ccc(O)cc1)NC(=O)[C@H](CCCCN)NC(=O)[C@H](CO)NC(=O)[C@H](Cc1ccc(O)cc1)NC(=O)[C@H](CC(=O)O)NC(=O)[C@H](CO)NC(=O)[C@@H](NC(=O)[C@H](Cc1ccccc1)NC(=O)[C@@H](NC(=O)CNC(=O)[C@H](CCC(N)=O)NC(=O)[C@H](CO)NC(=O)[C@@H](N)Cc1c[nH]cn1)[C@@H](C)O)[C@@H](C)O)C(C)C)C(=O)O)C(=O)O)C(=O)O)C(=O)O)C(=O)O [Example 52, N^ε^29-[(4S)-4-[[(4S)-4-[[(4S)-4-[[(4S)-4-acetamido-4-carboxybutanoyl]amino]-4-carboxybutanoyl]amino]-4-carboxybutanoyl]amino]-4-carboxybutanoyl]-[Leu^27,Ser^28,Lys^29]-Glucagon] | 0.01
CCCCC(=O)N[C@@H](CCC(=O)N[C@@H](CCC(=O)N[C@@H](CCC(=O)N[C@@H](CCC(=O)NCCCC[C@H](NC(=O)[C@@H](NC(=O)[C@H](Cc1ccccc1)NC(=O)[C@H](CC(=O)O)NC(=O)[C@H](C)NC(=O)[C@H](C)NC(=O)[C@H](CCCNC(=N)N)NC(=O)[C@H](CCCNC(=N)N)NC(=O)[C@H](CC(C)C)NC(=O)[C@H](CC(=O)O)NC(=O)[C@H](CC(C)C)NC(=O)[C@H](Cc1ccc(O)cc1)NC(=O)[C@H](CCCNC(=N)N)NC(=O)[C@H](CO)NC(=O)[C@H](Cc1ccc(O)cc1)NC(=O)[C@H](CC(=O)O)NC(=O)[C@H](CO)NC(=O)[C@@H](NC(=O)[C@H](Cc1ccccc1)NC(=O)[C@@H](NC(=O)CNC(=O)[C@H](CCC(N)=O)NC(=O)[C@H](CO)NC(=O)[C@@H](N)Cc1c[nH]cn1)[C@@H](C)O)[C@@H](C)O)C(C)C)C(=O)N[C@@H](Cc1c[nH]c2ccccc12)C(=O)N[C@@H](CC(C)C)C(=O)N[C@@H](CC(C)C)C(=O)N[C@@H](CO)C(=O)N[C@H](C(=O)O)[C@@H](C)O)C(=O)O)C(=O)O)C(=O)O)C(=O)O [Example 67] (H-HSQGTFTSDYSRYLDLRRAADFVK([γGlu-γGlu-γGlu-γGlu-Pentanoyl])WLLST-OH) | 0.022

Now from value to compound:

EC50 [nM] | Compound
0.009 | CC(=O)N[C@@H](CCC(=O)N[C@@H](CCC(=O)N[C@@H](CCC(=O)N[C@@H](CCC(=O)NCCCC[C@H](NC(=O)[C@@H](NC(=O)[C@H](Cc1ccccc1)NC(=O)[C@H](CCC(=O)O)NC(=O)[C@H](C)NC(=O)[C@H](C)NC(=O)[C@H](CCCNC(=N)N)NC(=O)[C@H](CCCNC(=N)N)NC(=O)[C@@H](NC(=O)[C@H](CC(=O)O)NC(=O)[C@H](CC(C)C)NC(=O)[C@H](Cc1ccc(O)cc1)NC(=O)[C@H](CCCCN)NC(=O)[C@H](CO)NC(=O)[C@H](Cc1ccc(O)cc1)NC(=O)[C@H](CC(=O)O)NC(=O)[C@H](CO)NC(=O)[C@@H](NC(=O)[C@H](Cc1ccccc1)NC(=O)[C@@H](NC(=O)CNC(=O)[C@H](Cc1c[nH]cn1)NC(=O)[C@H](C)NC(=O)[C@@H](N)Cc1c[nH]cn1)[C@@H](C)O)[C@@H](C)O)C(C)C)C(C)C)C(=O)N[C@@H](Cc1c[nH]c2ccccc12)C(=O)N[C@@H](CC(C)C)C(=O)N[C@@H](CC(C)C)C(=O)N[C@@H](CO)C(=O)N[C@H](C(=O)O)[C@@H](C)O)C(=O)O)C(=O)O)C(=O)O)C(=O)O [Example 47, N^ε24-[(4S)-4-[[(4S)-4-[[(4S)-4-[[(4S)-4-acetamido-4-carboxybutanoyl]amino]-4-carboxybutanoyl]amino]-4-carboxybutanoyl]amino]-4-carboxybutanoyl]-[Ala^2,His^3,Val^16,Ala^20,Glu^21,Lys^24,Leu^27,Ser^28]-Glucagon] (H-HAHGTFTSDYSKYLDVRRAAEFVK([γGlu-γGlu-γGlu-γGlu-Ac])WLLST-OH)
0.0065 | CC(=O)N[C@@H](CCC(=O)N[C@@H](CCC(=O)N[C@@H](CCC(=O)N[C@@H](CCC(=O)NCCCC[C@H](NC(=O)[C@@H](NC(=O)[C@H](Cc1ccccc1)NC(=O)[C@H](CC(=O)O)NC(=O)[C@H](CCC(N)=O)NC(=O)[C@H](C)NC(=O)[C@H](CCCNC(=N)N)NC(=O)[C@H](CCCNC(=N)N)NC(=O)[C@@H](NC(=O)[C@H](CC(=O)O)NC(=O)[C@H](CC(C)C)NC(=O)[C@H](Cc1ccc(O)cc1)NC(=O)[C@H](CCCCN)NC(=O)[C@H](CO)NC(=O)[C@H](Cc1ccc(O)cc1)NC(=O)[C@H](CC(=O)O)NC(=O)[C@H](CO)NC(=O)[C@@H](NC(=O)[C@H](Cc1ccccc1)NC(=O)[C@@H](NC(=O)CNC(=O)[C@H](CCC(N)=O)NC(=O)[C@H](CO)NC(=O)[C@@H](N)Cc1c[nH]cn1)[C@@H](C)O)[C@@H](C)O)[C@@H](C)O)C(C)C)C(=O)N[C@@H](Cc1c[nH]c2ccccc12)C(=O)N[C@@H](CC(C)C)C(=O)N[C@@H](CC(C)C)C(=O)N[C@@H](CO)C(=O)N[C@H](C(=O)O)[C@@H](C)O)C(=O)O)C(=O)O)C(=O)O)C(=O)O [Example 30]
0.054 | CC(=O)N[C@@H](CCC(=O)N[C@@H](CCC(=O)N[C@@H](CCC(=O)N[C@@H](CCC(=O)NCCCC[C@H](NC(=O)[C@@H](NC(=O)[C@H](Cc1ccccc1)NC(=O)[C@H](CCC(=O)O)NC(=O)[C@H](C)NC(=O)[C@H](C)NC(=O)[C@H](CCCNC(=N)N)NC(=O)[C@H](CCCNC(=N)N)NC(=O)[C@@H](NC(=O)[C@H](CC(=O)O)NC(=O)[C@H](CC(C)C)NC(=O)[C@H](Cc1ccc(O)cc1)NC(=O)[C@H](CCCCN)NC(=O)[C@H](CO)NC(=O)[C@H](Cc1ccc(O)cc1)NC(=O)[C@H](CC(=O)O)NC(=O)[C@H](CO)NC(=O)[C@@H](NC(=O)[C@H](Cc1ccccc1)NC(=O)[C@@H](NC(=O)CNC(=O)[C@H](CCC(N)=O)NC(=O)CNC(=O)[C@@H](N)Cc1c[nH]cn1)[C@@H](C)O)[C@@H](C)O)C(C)C)C(C)C)C(=O)N[C@@H](Cc1c[nH]c2ccccc12)C(=O)N[C@@H](CC(C)C)C(=O)N[C@@H](CC(C)C)C(=O)N[C@@H](CO)C(=O)N[C@H](C(=O)O)[C@@H](C)O)C(=O)O)C(=O)O)C(=O)O)C(=O)O [Example 49, N^ε24-[(4S)-4-[[(4S)-4-[[(4S)-4-[[(4S)-4-acetamido-4-carboxybutanoyl]amino]-4-carboxybutanoyl]amino]-4-carboxybutanoyl]amino]-4-carboxybutanoyl]-[Gly^2,Val^16,Ala^20,Glu^21,Lys^24,Leu^27,Ser^28]-Glucagon] (H-HGQGTFTSDYSKYLDVRRAAEFVK([γGlu-γGlu-γGlu-γGlu-Ac])WLLST-OH)
